# Results as given in patent publication US20120149780A1, “Method of Use of Vitamin K as Energy Enhancer in Diverse Disease States” (priority 2009, published 2012).
# Columns and labels:
# [1] = literature supplemental trials, oral supplementation; cited from earlier work
# [2] = Post-chemo restlessness/akathisia in ovarian cancer patient (case report); type: in vivo, human; conditions: Example 05: person, ovarian cancer under chemotherapy
# Description: (§1) Person, was diagnosed to have bilateral ovarian cancer in 2005, with ascites and abdominal lymph node metastases. They have undergone surgery and several courses of chemotherapy. […] They are currently under chemotherapy cycles. They tolerated chemotherapy reasonably well but complained of marked fatigue and low energy levels. […] They were given a larger dose of vitamin K2-7 per day. […] They are continued on the dose of vitamin K2-7 for two months.
# [3] = Blood pressure in individual subjects taking vitamin K2-7 (case reports); type: in vivo, human
# Experimental: Person, with hypercholesterolemia (Lipid Profile; 200 mg—Total cholesterol) for which they are taking Atorvastatin 5 mg one per day and 75 mg of Aspirin one per/day since last five years. Underwent angioplasty. They were also having blood pressure which ranges from 136-134/90-88 mmHg. They were taking Telmisartan 40 mg/day from last 4 years for hypertension. Then about 6 months ago they started taking vitamin K2-7 in daily dose of 200 μg. Currently they have stopped taking anti-hypertensive medication from last 1 month. Over a period of 1 and ½ months it is observed that their blood pressure has dropped down to 118-114/78-84 mmHg. Now they are off any anti-hypertensive medicine and continues with vitamin K2-7 only.
# (§2) Person was having hypertension (160/114 mmHg) but was not on any medication. They complained of fatigue and low energy level. They were put on 3 capsules per day of 100 μg of vitamin K2-7 for 1 month and then on 2 capsule per day of 350 μg of vitamin K2-7 for the next 2 months under close observation by medical doctor. […] They continued the medicine for next couple of month with same dose i.e. 2 capsules per day of 350 μg of vitamin K2-7. […] Then they were taken off from the treatment for 15 days. Blood pressure shot up to 146/108 mmHg, They were again put on vitamin K2-7, 350 μg, 2 capsules per day and their blood pressure came down to 136/100 mmHg.
# (§3) Person, healthy otherwise, was having blood pressure on higher side i.e. 130/90 mmHg. They were advised to start taking vitamin K2-7, in a dose of 650 μg, one capsule per day.
# [4] = Fatigue, energy level and exertion endurance in individual subjects (case reports); type: in vivo, human
# Experimental: Person, suffering from general fatigue. They used to go to Gold gym 5-6 times per month. On the treadmill they used to walk at 5 km/hr speed at the start of the exercise and then gradually increase it to 6 km/hr in the next 15 minutes. When they started taking vitamin K2-7 350 μg per day, within 2 weeks of taking vitamin K2-7, they could start at 6 km/hr and go on up to 6.4 km/hr on the treadmill without feeling the strain they felt earlier. […] Their treadmill experience, was now smooth and ‘effortless’.
# as §1
# (§4) Their complaints were fatigue, low energy level, muscle cramps and tingling and numbness of lower limbs. […] These returned with drawal and were relieved with re-therapy. […] They were started 350 μg per day of vitamin K2-7 over the two months period.
# as §2
# Person, was heaving history of Spondylosis, Diabetes mellitus and Hypertension. Five years ago they were operated for cataract (right eye). They are on regular medicine i.e. Atenol50™, one per day, after breakfast, Insulin2™ one per day after lunch, and Diaonil5™, two times a day. They were complaining of fatigue and lack of energy so much so that they found ascending 20 steps at a time difficult with related exhaustion and breathlessness. They were advised to take vitamin K2-7, 350 μg, one cap per day.
# [5] = Muscle cramps and neuropathic symptoms of lower limbs (case report); type: in vivo, human; conditions: Example 06: person
# Experimental: as §4
# CEA = CEA levels in ovarian cancer patient (case report); type: in vivo, human; conditions: Example 05: person, under chemotherapy and vitamin K2-7
# Description: as §1
# [6] = Side effects / adverse effects noted during treatment (case reports); type: in vivo, human
# Experimental: as §4, §3
# [7] = 500 μg/day, 36-month, older men; cited from earlier work
molecule,measurement,setting,value
CN(CC(=O)O)C(=N)N.O [Creatine monohydrate],effect of supplementation on VO2max / aerobic capacity / exercise performance,[1],did not increase performance
OC[C@H]1O[C@@H](n2cnc3c(O)ncnc32)[C@H](O)[C@@H]1O [Inosine],effect of supplementation on VO2max / aerobic capacity / exercise performance,[1],no effect on aerobic performance
C[N+](C)(C)C[C@H](O)CC(=O)[O-] [L-carnitine],effect of supplementation on VO2max / aerobic capacity / exercise performance,[1],unlikely to be associated with the enhanced exercise performance
"NC(=O)C1=CN([C@@H]2O[C@H](COP(=O)(O)OP(=O)(O)OC[C@H]3O[C@@H](n4cnc5c(N)ncnc54)[C@H](O)[C@@H]3O)[C@@H](O)[C@H]2O)C=CC1 [NADH, Nicotinamide Adenine Dinucleotide Hydride]",effect of supplementation on VO2max / aerobic capacity / exercise performance,[1],"no effects on maximal oxygen uptake VO2max, maximal anaerobic running time or mental performance"
CN(CC(=O)O)C(=N)N [creatine],effect of supplementation on VO2max / aerobic capacity / exercise performance,[1],improves exercise performance
CC(O)C(=O)O (stereo not drawn) [lactate],effect of supplementation on VO2max / aerobic capacity / exercise performance,[1],unaffected
"CC(CN1c2ccccc2Sc2ccccc21)N(C)C (stereo not drawn) [phenergan, reference compound]",post-chemo restlessness/akathisia,[2],relieved
O=C1O[C@H]([C@@H](O)CO)C(O)=C1O [vitamin C],effect of supplementation on VO2max / aerobic capacity / exercise performance,[1],"neither vitamin E nor C, either alone or in combination, enhanced exercise performance"
CC(C)=CCC/C(C)=C/CC/C(C)=C/CC/C(C)=C/CC/C(C)=C/CC/C(C)=C/CC/C(C)=C/CC1=C(C)C(=O)c2ccccc2C1=O [vitamin K2-7],blood pressure,[3]; Example 07: 2x350 μg/day restarted after 15 days off treatment (146/108 off treatment),136/100
same,blood pressure,[3]; Example 07: continued 2x350 μg/day for next couple of months,138/104
same,blood pressure,"[3]; Example 07: person, 3x100 μg/day 1 month then 2x350 μg/day 2 months, baseline 160/114",140/108
same,blood pressure,"[3]; Example 08: person, 650 μg one capsule/day, 2 months, baseline 130/90",112/80
same,general fatigue,"[4]; Example 04: person, 350 μg/day",general fatigue had reduced
same,treadmill starting speed,"[4]; Example 04: person, 350 μg/day, within 2 weeks, earlier start 5 km/hr",6 km/hr
same,treadmill speed reached,"[4]; Example 04: person, 350 μg/day, within 2 weeks, earlier up to 6 km/hr",6.4 km/hr
same,fatigue and energy level,"[4]; Example 05: person, ovarian cancer under chemotherapy, 100 μg/day",not much relief in fatigue and energy level
same,fatigue and energy level,"[4]; Example 05: person, ovarian cancer under chemotherapy, larger dose, within six weeks",less fatigue and significant improvement in the energy level
same,fatigue and low energy levels,"[4]; Example 06: person, 100 μg/day",only mildly relieved
same,fatigue and energy level,"[4]; Example 06: person, 350 μg/day over two months",significant relief in fatigue and reasonable increases in the energy level
same,fatigue and energy at work,"[4]; Example 07: person, hypertensive, 2x350 μg/day",improvement in fatigue and feels more energetic at work
same,energy / ability to climb stairs,"[4]; Example 09: person, diabetes and hypertension, 350 μg one cap/day, after a month",started feeling more energetic and would walk up the stairs easily without any problem
same,"symptoms of the nerves and muscle (cramps, tingling and numbness of lower limbs)",[5]; 100 μg/day,significantly relieved
same,cramps and neuropathic symptoms,[5]; 350 μg/day over two months,markedly reduced
same,post-chemo restlessness/akathisia,[2],did not benefit
same,CEA levels,CEA,dropped markedly
same,side effects,"[6]; Example 06: person, 100 then 350 μg/day",no side effects
same,adverse effects,"[6]; Example 08: person, 650 μg/day, 2 months",no adverse effects
phosphate [Oral phosphate],effect of supplementation on VO2max / aerobic capacity / exercise performance,[1],no improvement in aerobic capacity
vitamin E,effect of supplementation on VO2max / aerobic capacity / exercise performance,[1],"neither vitamin E nor C, either alone or in combination, enhanced exercise performance"
vitamin K,progression of insulin resistance,[7],reduction in progression of insulin resistance
